The target of assay [1] is T1, Tryptophan 2,3-dioxygenase (Homo sapiens, UniProt P48775). As to the kind of experiment: Inhibition of recombinant full length C-terminal His-tagged human TDO expressed in Escherichia coli using L-Trp as substrate after 30 mins.
In assay [2] the target is T1, Tryptophan 2,3-dioxygenase. In words: Mixed type […] inhibition of recombinant full length C-terminal His-tagged human TDO expressed in Escherichia coli using L-Trp as substrate after 30 mins by Dixon plot analysis.
Assay [3] has as its target T1, Tryptophan 2,3-dioxygenase. In words: Inhibition of TDO in human U87 MG cells using L-Trp as substrate after 8 hrs. It counts as cell-based, U-87MG ATCC.
Assay [4] deals with T1, Tryptophan 2,3-dioxygenase. As to the kind of experiment: Inhibition of TDO (unknown origin) expressed in HEK293 cells using L-Trp as substrate after 8 hrs. It counts as cell-based.
Assay [5] concerns the target T1, Tryptophan 2,3-dioxygenase. In words: Uncompetitive inhibition of recombinant full length C-terminal His-tagged human TDO expressed in Escherichia coli using L-Trp as substrate after 30 mins by Dixon plot analysis.
A further assay is filed under the species Homo sapiens. In words: Selectivity ratio of IC50 for IDO1 (unknown origin) to IC50 for recombinant full length C-terminal His-tagged human TDO.
Assay [6] deals with T1, Tryptophan 2,3-dioxygenase. In words: Inhibition of TDO (unknown origin).
Assay [7] deals with Indoleamine 2,3-dioxygenase 1 (Homo sapiens, UniProt P14902). In words: Inhibition of IDO1 (unknown origin).
Indoleamine 2,3-dioxygenase 1, sequence (P14902 whole entry): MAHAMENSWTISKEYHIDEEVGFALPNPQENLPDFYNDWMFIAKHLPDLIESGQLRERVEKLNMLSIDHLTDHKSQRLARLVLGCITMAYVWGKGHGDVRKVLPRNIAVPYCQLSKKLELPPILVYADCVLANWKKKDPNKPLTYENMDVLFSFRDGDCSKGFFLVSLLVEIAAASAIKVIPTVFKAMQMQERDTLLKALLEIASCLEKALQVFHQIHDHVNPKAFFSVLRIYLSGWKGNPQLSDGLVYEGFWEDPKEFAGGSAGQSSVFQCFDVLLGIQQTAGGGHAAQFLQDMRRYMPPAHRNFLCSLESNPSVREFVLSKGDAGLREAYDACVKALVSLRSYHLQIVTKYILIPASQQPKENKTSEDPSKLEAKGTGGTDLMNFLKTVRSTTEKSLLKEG

T1 sequence (P48775 whole entry): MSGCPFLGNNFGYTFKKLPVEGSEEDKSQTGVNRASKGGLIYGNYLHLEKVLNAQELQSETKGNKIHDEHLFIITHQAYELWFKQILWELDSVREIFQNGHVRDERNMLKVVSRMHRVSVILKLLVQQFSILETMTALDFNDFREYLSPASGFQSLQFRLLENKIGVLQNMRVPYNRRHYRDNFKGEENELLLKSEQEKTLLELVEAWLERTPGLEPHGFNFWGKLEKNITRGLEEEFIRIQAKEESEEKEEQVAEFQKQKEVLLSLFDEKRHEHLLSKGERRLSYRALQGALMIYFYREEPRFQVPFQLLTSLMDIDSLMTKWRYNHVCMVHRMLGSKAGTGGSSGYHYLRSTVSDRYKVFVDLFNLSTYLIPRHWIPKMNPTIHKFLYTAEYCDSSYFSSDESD

Regarding `O=C1c2ccc(Cl)cc2-n2c1nc1ccccc1c2=O`, the IC50 in assay [1] is 224000 nM; in assay [3] it was 957 nM; in assay [4] it was 733 nM. Moreover, in assay [2], the Ki amounted to 42700 nM.
Turning to `O=C1c2cc(Br)ccc2-n2c1nc1ccccc1c2=O`, in assay [5], the Ki was 356 nM. Further, the IC50 in assay [1] worked out at 937 nM; in assay [3], 54 nM; in assay [4], 53 nM.
For the compound `NS(=O)(=O)NCCNc1nonc1C(=NO)Nc1ccc(F)c(Br)c1` [EPACADOSTAT], the Ki in assay [5] came out at 21700 nM. For the same compound, the IC50 was 64500 nM in assay [1], 260 nM in assay [3] and 242 nM in assay [4].
On the same counts, the results for `O=C1c2cc([N+](=O)[O-])ccc2-n2c1nc1ccccc1c2=O` are 215 nM, 101 nM, 40 nM and 61 nM.
With `O=C1c2cc(F)ccc2-n2c1nc1ccccc1c2=O`, the Ki in assay [5] is 336 nM. Besides, the IC50 came out at 937 nM in assay [1], 60 nM in assay [3] and 68 nM in assay [4].
Regarding `Cc1ccc2c(c1)C(=O)c1nc3ccccc3c(=O)n1-2`, the IC50 in assay [1] amounted to 3230 nM; in assay [3], 184 nM; in assay [4] it was 215 nM. Moreover, the Ki in assay [2] worked out at 834 nM. Further, in the assay filed under Homo sapiens, the Ratio IC50 was determined as 38.
On the same counts, the results for `O=C1c2ccccc2-n2c1nc1ccc(F)cc1c2=O` are 9810 nM, 503 nM, 241 nM, 876 nM and 88.
Turning to `O=C1c2ccccc2-n2c1nc1ccccc1c2=O` [TRYPTANTHRIN], the Ki in assay [5] turned out to be 581 nM. Moreover, the results for the IC50 in assay [1], in assay [3] and in assay [4] were 3940 nM, 194 nM and 140 nM, respectively.
Turning to `O=C1c2cc(F)ccc2-n2c1nc1ccc(F)cc1c2=O`, the IC50 in assay [1] stood at 1490 nM; in assay [3] it was 62 nM; in assay [4], 59 nM. Moreover, the Ki in assay [2] is 1000 nM.
`O=C1c2cc(O)c(O)cc2OC(c2ccc(O)c(O)c2)C1O` (centres undefined): the Ki in assay [6] is 16000 nM; in assay [7] it was over 100000 nM.
With `O=C1c2c(Cl)cccc2-n2c1nc1ccccc1c2=O`, in assay [5], the Ki amounted to 8410 nM. Also, the IC50 in assay [1] came to 44800 nM; in assay [3], 227 nM; in assay [4] it was 229 nM.

The term IC50 denotes the concentration at which inhibition is half-maximal. Usually Ki stands for the dissociation constant of the complex between target and ligand, obtained from inhibition or displacement.

The record behind these values is ChEMBL document CHEMBL4382205, “Tryptophan 2,3-dioxygenase inhibitory activities of tryptanthrin derivatives” (Eur J Med Chem, 2018).
